We go through 13 compounds from US7262192B2, “Substituted pyrazolo[4,3-d]pyrimidines and their use as PDE-5 inhibitors” (Pfizer Inc., priority 2003, dated 2007).

In this test the target is cGMP-specific PDE-5 (UniProt O76074). Briefly: PDE-5 inhibition, batch method or scintillation proximity assay. The class given is biochemical, human. Particulars: activity against PDE-5; representative preferred compounds. From the text: The compounds of the invention are inhibitors of cyclic guanylate monophosphate (cGMP)-specific phosphodiesterase type 5 (PDE-5 inhibitors).
The required PDE enzymes can be isolated from a variety of sources, including human corpus cavernosum, human and rabbit platelets, human cardiac ventricle, human skeletal muscle and bovine retina, essentially by a modification of the method of Thompson, W J et al.; Biochemistry 18(23), 5228-5237, 1979, as described by Ballard S A et al.; J. Urology 159(6), 2164-2171, 1998. In particular, cGMP-specific PDE-5 and cGMP-inhibited cAMP PDE-3 can be obtained from human corpus cavernosum tissue, human platelets or rabbit platelets; cGMP-stimulated PDE-2 was obtained from human corpus cavernosum; calcium/calmodulin (Ca/CAM)-dependent PDE-1 from human cardiac ventricle; cAMP-specific PDE-4 from human skeletal muscle; and photoreceptor PDE-6 from bovine retina. Phosphodiesterases 7-11 can be generated from full length human recombinant clones transfected into SF9 cells.
Assays can be performed either using a modification of the “batch” method of Thompson W J and Appleman M M; Biochemistry 10(2),311-316, 1971, essentially as described by Ballard S A et al.; J. Urology 159(6), 2164-2171, 1998, or using a scintillation proximity assay for the direct detection of [^3H]-labelled AMP/GMP using a modification of the protocol described by Amersham plc under product code TRKQ7090/7100. In summary, for the scintillation proximity assay the effect of PDE inhibitors was investigated by assaying a fixed amount of enzyme in the presence of varying inhibitor concentrations and low substrate, (cGMP or cAMP in a 3:1 ratio unlabelled to [^3H]-labeled at a concentration of ˜⅓ Km or less) such that IC50≈Ki. The final assay volume was made up to 100 μL with assay buffer [20 mM Tris-HCl pH 7.4, 5 mM MgCl2, 1 mg/mL bovine serum albumin]. Reactions were initiated with enzyme, incubated for 30-60 min at 30° C. to give <30% substrate turnover and terminated with 50 μL silicate SPA beads (containing 3 mM of the respective unlabelled cyclic nucleotide for PDEs 9 and 11).

Consider `CCOCCn1nc(CC)c2nc(N(C)C3CCN(C)CC3)nc(Nc3ccncn3)c21` [Example 2], for which the IC50 stood at 0.5 nM.

Consider `CCOCCn1nc(C)c2nc(N3CCNC(C)C3)nc(Nc3ccncn3)c21` (stereo not shown) [Example 11], for which the IC50 stood at 0.31 nM.

The compound `CCOCCn1nc(CC)c2nc(N3CCNC(C)C3)nc(Nc3ccncn3)c21` (stereo not shown) [Example 15] registered an IC50 of 0.11 nM.

On to `CCCOCCn1nc(C)c2nc(N3CCNC(C)C3)nc(Nc3ccncn3)c21` (stereo not shown) [Example 23], for which the IC50 was found to be 0.47 nM.

`CCOCCn1nc(C)c2nc(N3CC(C)NCC3C)nc(Nc3ccncn3)c21` (stereo not shown) [Example 138] came in with a half-inhibitory concentration (IC50) of 0.33 nM. The IC50 values of the last two compounds are within 1.5-fold of each other.

`CCOCCn1nc(CC)c2nc(N3CC(C)NCC3C)nc(Nc3ccncn3)c21` (stereo not shown) [Example 141] displayed an IC50 of 0.15 nM.

Compound `CCOCCn1nc(CC)c2nc(N(C)C3CCN(C)C3)nc(Nc3cc(C)ccn3)c21` (stereo not shown) [Example 162] gave an IC50 of 0.24 nM.

Compound `CCOCCn1nc(CO)c2nc(N(C)CC)nc(Nc3cc(C)ccn3)c21` [Example 181, [1-(2-Ethoxyethyl)-5-(N-ethyl-N-methylamino)-7-(4-methylpyridin-2-ylamino)-1H-pyrazolo[4,3-d]pyrimidin-3-yl]methanol] registered an IC50 of 0.41 nM.

As to `CCOCCn1nc(COC)c2nc(N(C)C)nc(Nc3cc(C)ccn3)c21` [Example 185, 1-(2-Ethoxyethyl)-3-methoxymethyl-N^5,N^5-dimethyl-N^7-(4-methylpyridin-2-yl)-1H-pyrazolo[4,3-d]pyrimidine-5,7-diamine], the IC50 is 1.32 nM.

As to `CCOCCn1nc(C)c2nc(N(C)[C@H]3CCN(C)C3)nc(Nc3ccncn3)c21` [Example 191, 1-(2-Ethoxyethyl)-N^5,3-dimethyl-N^5-[(3S)-1-methylpyrrolidin-3-yl]-N^7-pyrimidin-4-yl-1H-pyrazolo[4,3-d]pyrimidine-5,7-diamine], the IC50 worked out at 2.4 nM. This IC50 lies about 1.8-fold higher than the previous one.

On to `CCOCCn1nc(COC)c2nc(N3CCN[C@H](C)C3)nc(Nc3cccc(C)n3)c21` [Example 211], for which the midpoint of inhibition, the IC50, lay at 2.7 nM. The IC50 values of the last two compounds are within 1.5-fold of each other.

In turn, `CCOCc1nn(CCOCC(F)(F)F)c2c(Nc3cccc(C)n3)nc(N3CCNC(C)C3)nc12` (stereo not shown) [Example 255] registered a concentration for half-maximal inhibition (IC50) of 1.43 nM.

On to `CCOCc1nn(CCOCC(F)(F)F)c2c(Nc3cc(C)ccn3)nc(N3CCNC(C)C3)nc12` (stereo not shown) [Example 256], for which the IC50 is 3.89 nM.

For orientation: IC50 means the concentration that inhibits the measured activity by half. Read a high IC50 as lower potency.
